Experimental data taken from patent US9226950B2, “Method and composition for treating diabetes mellitus” (National Dong Hwa University, priority 2013, dated 2016).

Legend:
Insr = biological target: T1, Insr (Rattus norvegicus, UniProt P15127); assay: Phosphorylation of insulin receptors (Tyr1158/Tyr1162/Tyr1163) in L6 cells, Western blot; format: cell-based; conditions: FIG. 1(a)
T1 construct: L6 cells were fully differentiated with α-MEM supplemented with 2% FBS for 5 days to myotubes; endogenous in cells; host or cells: L6 myoblasts differentiated to myotubes
T1 sequence (P15127 27-759 limits assumed): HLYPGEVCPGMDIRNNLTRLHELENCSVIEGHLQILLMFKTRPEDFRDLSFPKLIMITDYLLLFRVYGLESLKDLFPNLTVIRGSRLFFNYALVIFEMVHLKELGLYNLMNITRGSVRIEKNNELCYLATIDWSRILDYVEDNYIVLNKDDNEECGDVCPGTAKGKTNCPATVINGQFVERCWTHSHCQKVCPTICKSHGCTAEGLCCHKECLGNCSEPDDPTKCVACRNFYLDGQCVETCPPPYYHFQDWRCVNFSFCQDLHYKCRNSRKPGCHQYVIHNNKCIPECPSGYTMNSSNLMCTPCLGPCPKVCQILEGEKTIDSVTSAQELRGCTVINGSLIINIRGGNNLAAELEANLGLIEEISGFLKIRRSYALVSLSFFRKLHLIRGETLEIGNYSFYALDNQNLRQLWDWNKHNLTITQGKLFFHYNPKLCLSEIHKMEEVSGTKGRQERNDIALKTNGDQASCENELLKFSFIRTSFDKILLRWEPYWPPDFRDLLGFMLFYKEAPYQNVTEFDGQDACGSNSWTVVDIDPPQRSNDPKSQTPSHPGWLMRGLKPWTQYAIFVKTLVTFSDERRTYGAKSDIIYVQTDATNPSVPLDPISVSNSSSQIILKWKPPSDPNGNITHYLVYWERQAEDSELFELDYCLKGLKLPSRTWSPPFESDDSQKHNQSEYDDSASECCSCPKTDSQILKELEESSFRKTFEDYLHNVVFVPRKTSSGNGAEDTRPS
T1 sequence (P15127 764-1383 limits assumed): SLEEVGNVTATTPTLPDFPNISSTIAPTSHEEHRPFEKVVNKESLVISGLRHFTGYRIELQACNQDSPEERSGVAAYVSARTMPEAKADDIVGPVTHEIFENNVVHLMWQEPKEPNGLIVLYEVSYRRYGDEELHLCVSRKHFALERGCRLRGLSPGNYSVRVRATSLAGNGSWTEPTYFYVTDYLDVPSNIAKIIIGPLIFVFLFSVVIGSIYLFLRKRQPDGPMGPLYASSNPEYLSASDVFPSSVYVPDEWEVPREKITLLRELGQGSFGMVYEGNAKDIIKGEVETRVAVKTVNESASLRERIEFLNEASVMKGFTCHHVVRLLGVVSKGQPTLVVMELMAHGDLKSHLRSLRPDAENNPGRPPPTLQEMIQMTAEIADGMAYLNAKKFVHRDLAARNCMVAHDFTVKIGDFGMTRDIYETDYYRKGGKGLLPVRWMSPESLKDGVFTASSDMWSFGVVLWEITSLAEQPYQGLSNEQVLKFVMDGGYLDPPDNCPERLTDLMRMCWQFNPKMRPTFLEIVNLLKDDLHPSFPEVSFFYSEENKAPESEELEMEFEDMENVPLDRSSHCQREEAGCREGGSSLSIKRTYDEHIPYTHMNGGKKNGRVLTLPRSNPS
Method: (§1) […] muscle myoblast cells (L6) was a generous gift from Professor Hitoshi Ashida's Lab. (Kobe University, Kobe, Japan). The cells were grown and maintained in α-minimal essential medium (α-MEM, 12000022, GIBCO, CA, USA) containing 10% fetal bovine serum (FBS, GIBCO) and 1% penicillin streptomycin (GIBCO) in a cell culture incubator with 5% CO2 at 37° C. Prior to the following experiments, the cells were seeded and cultured at a density of 8×10^3 cells per well in 96-well plates or 2.5×10^5 cells per well in 6-well plates. After the myoblasts achieved 80% confluence, the cells were incubated for 5 days in the α-MEM supplemented with 2% FBS to induce differentiation to myotubes.
L6 cells were fully differentiated with α-MEM supplemented with 2% FBS for 5 days to myotubes. The cells were washed twice with Phosphate Buffered Saline (PBS) containing 0.1% BSA and subsequently incubated α-MEM containing 0.25% BSA with or without 100 nM of S961, and treated with or without 100 μM of Tetracosanol for 90 min. Then, the cells were treated with or without 10 μM of insulin for 5 min. […] The levels of the proteins including phospho-Insulin receptors (Tyr1158/Tyr1162/Tyr1163) and Insulin receptor (Cell Signaling, Boston, Mass., USA) were detected and evaluated by Western blot with primary antibody.
The cells after treatments were collected and washed twice in cold KRH buffer, and then lysed in ice-cold RIPA buffer incubation at 4° C. for 60 min. After centrifugation at 12,000×g for 30 min at 4° C., the supernatant was kept and quantified by Bradford protein assay (Bio-Rad, Hercules, Calif., USA). […] The signals were monitored using Western Lightning™ Plus-ECL (Perkin Elmer Life Sciences) and the PVDF membrane was exposed to Luminescent image analyzer (LAS)-3000 (Fujifilm, Minato, Tokyo, Japan). Acquired data were analyzed and compared the difference among treatments. […]

AMPK = assay: Phosphorylation of AMPK on Thr172 in L6 cells, Western blot; format: cell-based, mouse; conditions: 100 μM tetracosanol 90 min, then 10 μM insulin 30 min, FIG. 2
Method: as §1
The L6 cells were fully differentiated with α-MEM supplemented with 2% FBS for 5 days to myotubes. […] The levels of the proteins including phospho-AKT (Thr308), AKT, phospho-AMPK (Thr172), and AMPK (Cell Signaling) were detected and evaluated by Western blot with primary antibody.
The cells after treatments were collected and washed twice in cold KRH buffer, and then lysed in ice-cold RIPA buffer incubation at 4° C. for 60 min. After centrifugation at 12,000×g for 30 min at 4° C., the supernatant was kept and quantified by Bradford protein assay (Bio-Rad, Hercules, Calif., USA). […] Acquired data were analyzed and compared the difference among treatments. […]

CCCCCCCCCCCCCCCCCCCCCCCCO [tetracosanol]
phosphorylation of phospho-Insr on Tyr1158, 1162, and 1163 (Insr; insulin plus tetracosanol (Ins+Tet): 100 μM tetracosanol 90 min, then 10 μM insulin 5 min): tended to be enhanced
phosphorylation of phospho-Insr on Tyr1158, 1162, and 1163 (Insr; insulin with S961 plus tetracosanol (Ins+S961+Tet): 100 nM S961, 100 μM tetracosanol, 10 μM insulin): tended to be enhanced
insulin-independent GLUT4 translocation response (phospho-AMPK on Thr172) (AMPK): no insulin-independent GLUT4 translocation response
